Experimental data taken from patent publication US6348476B1, “Pharmaceutical combination preparation of an inhibitor of the sodium/hydrogen exchanger and a medicament for the treatment of cardiovascular diseases” (Aventis Pharma Deutschland GmbH, priority 1997, dated 2002).

System: experimental cardiac infarct in rats
Assay: experimental cardiac infarct in rats: coronary artery closed for one hour, reperfused for two hours, size of infarct determined
Type: in vivo
Conditions: % of the risk area, mean±S.E.M., control 63.4±4.3%
Experimental: Male rats having a body weight of 280 to 410 g were classed into four groups and anaesthetized. The thorax was opened close to the sternum, a silk thread (Ethicon^R; 1.0 metric, 5-0) was placed around left coronary artery and the two loose ends of the thread were pulled through a small plastic tube.
For administration of substance, a catheter was placed into the left jugular vein. The systemic blood pressure was recorded in the left carotid artery using a pressure recorder (Combitrans^R, B. Braun Melsungen AG) and the ECG was registered using subcutaneous electrodes. After digital conversion, the data were registered in a computer and the ECG was evaluated in accordance with the guidelines of the Lambeth Convention (6. Walker M J A, Curtis M J, Hearse D J, Campbell R W F, Janse M J, Yellon D M, Cobbe S M, Cokes S J, Harness J B, Harron D W G, Higgins S J, Julian D G, Lab M J, Manning A S, Northover B J, Parraft J R, Riemersma R A, Rieva E, Russell D G, Sheridan D J, Winslow E, Woodward B: The Lambeth convention: Guidelines for the study of arrhythmias in ischemia, infarction and reperfusion. Cardiovasx. Res 1988; 22: 447-455).
Hoe 642 was dissolved in doubly distilled water and R56865 in tartaric acid (0.6%), dilution was carried out using doubly distilled water, and 4% of mannitol were added. […]

SMILES	size of infarct (10 mg/kg of body weight of Hoe 642 intravenously 5 min before occlusion, n=7) [%]	size of infarct (3 mg/kg of body weight of R56865 intravenously 5 min before occlusion, n=8) [%]
CC(C)c1ccc(C(=O)N=C(N)N)cc1S(C)(=O)=O.CS(=O)(=O)O [Hoe 642, cariporide]	33.2±3.7	–
CN(c1nc2ccccc2s1)C1CCN(CCCCOc2ccc(F)cc2)CC1 [R56865, N-[1-[4-(4-fluorophenoxy)butyl]-4-piperdinyl]-N-methyl-2-benzothiazolamine]	–	38.9±3.1
